One experiment addresses T1, FPR2 (Homo sapiens, UniProt P25090).
T1 construct: expressed in transfected cells; host or cells: RBL cells overexpressing FPR2 (FPR2-RBL)
T1 sequence (P25090 1-351): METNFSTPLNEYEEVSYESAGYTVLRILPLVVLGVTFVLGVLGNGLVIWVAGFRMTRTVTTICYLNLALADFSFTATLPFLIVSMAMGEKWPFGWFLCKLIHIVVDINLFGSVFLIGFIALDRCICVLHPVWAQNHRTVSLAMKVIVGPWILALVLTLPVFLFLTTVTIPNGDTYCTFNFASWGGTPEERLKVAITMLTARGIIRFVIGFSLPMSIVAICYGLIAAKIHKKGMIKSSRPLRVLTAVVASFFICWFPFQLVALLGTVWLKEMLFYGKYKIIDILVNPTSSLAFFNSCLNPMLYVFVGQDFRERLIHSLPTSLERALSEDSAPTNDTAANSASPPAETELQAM
Description: FPR2 activation by intracellular calcium ion increase (Fura-2/AM) in FPR2-RBL cells. The class given is cell-based. Particulars: RBL cells overexpressing FPR2. The protocol: The present inventors observed a change in calcium ion permeability of the candidate peptides according to an embodiment of the present invention in order to determine whether they can activate the immunomodulatory function in a body or not. Particularly, intracellular concentration of calcium ions was measured to confirm that the peptide activates FPR2. RBL cells that do neither express FPR1 nor FPR2, RBL cells overexpressed FPR1 (FPR1-RBL) and RBL cells that overexpressed FPR2 (FPR2-RBL) were used and Fura-2/AM which is a fluorophore having high binding affinity to calcium in order to measure intracellular calcium ion level sensitively. For this purpose, cells were cultured in RPMI medium supplemented with 10% fetal bovine serum and harvested by centrifugation in log phase (mid-log phase, 1-3×10^7 cells/ml), and then washed several times with RPMI medium not supplemented with fetal bovine serum, and then the cells were resuspended in RPMI medium to 1×10^7 cells/ml. Subsequently, a final 3 μM concentration of Fura-2/AM was added and the cells were incubated for 45 minutes in a 37° C., 5% CO2 incubator. After the appropriated time, the cells are harvested, washed again with RPMI medium, and then suspended in the appropriate amount of RPMI medium supplemented with 250 μM of sulfinpyrazone, in order to prevent loss of Fura-2 entering the cells. About 2×10^6 cells were taken each time, harvested by rapid centrifugation, and resuspended in 1 ml of a Locke solution without addition of calcium ions and EGTA added, and the ratio of absorbance at two wavelengths of 340 nm and 380 nm on a spectrophotometer were monitored by treating the peptides according to an embodiment of the present invention at different concentrations (1 μM, 0.1 μM, and 0.01 μM) at intervals of about 1 minute, and then the difference in absorbance at two wavelengths was investigated. It was converted to the concentration of free calcium ions into cells according to the method of Grynkiewicz.
For orientation: Calcium assays in cells follow changes in intracellular calcium, usually with a dye or a luminescent sensor.

For another experiment, the system named is S. aureus. The class given is cell-based, Staphylococcus aureus. Conditions: 18 h. The protocol: (§1) The present inventors evaluated […] in order to select peptides showing excellent performance among various peptides synthesized in the Example 1. Particularly, in order to measure the antimicrobial activity of the peptide, after preparing Gram-positive bacteria Staphylococcus aureus (S. aureus) and Gram-negative bacteria Pseudomonas aeruginosa (P. aeruginosa), the bacteria were plated on agar plate medium by fourth streaking and cultured overnight in a 36° C. incubator. The next day, the strain colonies produced on the agar plate medium were inoculated into 3 ml nutrient medium and cultured overnight in a stirring incubator at 36° C. and 220 rpm. The next day, the bacteria were diluted to measure absorbance at 600 nm, adjusted to OD600=0.5, and diluted in a 1:100 ratio in nutrient medium. Then, the peptides prepared in the above Examples were serially diluted in concentrations of 0, 1.25, 2.5, 5, 10, and 20 μM in a nutrient medium to prepare 1 ml each, and then inoculated with 1 ml of the diluted bacteria. Subsequently, the mixture was stirred under conditions of 36° C. and 220 rpm, and incubated for 18 hours, and absorbance at 600 nm was measured.
(§2) As a result, 20 peptides showing high antibacterial activity against P. aeruginosa and S. aureus) were selected (FIGS. 2 and 3).

Another experiment concerns P. aeruginosa. The class given is cell-based, Pseudomonas aeruginosa. Conditions: 18 h. The protocol: as §1, §2

Non-standard residues stand in square brackets, D forms with d. Residues, ends and D or L forms follow the SMILES beside them. *: point of attachment. 2Nal = N[C@@H](Cc1ccc2ccccc2c1)C(=O)O; Nle = CCCC[C@H](N)C(=O)O; Octanoyl = CCCCCCCC(=O)* Bounds are passed on as bounds.

In general, EC50 refers to the concentration that produces a half-maximal response. On to `CCCCCCCC(=O)N[C@@H](CCCCN)C(=O)N[C@@H](Cc1ccccc1)C(=O)N[C@@H](CCCCN)C(=O)N[C@@H](Cc1c[nH]c2ccccc12)C(=O)N[C@@H](CCCC)C(=O)N[C@@H](Cc1ccc(O)cc1)C(=O)N[C@H](CCSC)C(N)=O` [Peptide V3, Oct-KFKW-Nle-Ym-NH2] (Octanoyl-KFKW[Nle]Y[dM]-NH2), for which the EC50 at FPR2 stood at 107 nM. The “Antimicrobial activity (IC50, μg/ml) S. aureus” value with S. aureus turned out to be 15.2 µg/mL.

Consider `CCCCCCCC(=O)N[C@@H](CCCCN)C(=O)N[C@@H](Cc1c[nH]c2ccccc12)C(=O)N[C@@H](CCCCN)C(=O)N[C@@H](Cc1c[nH]c2ccccc12)C(=O)N[C@@H](CCCC)C(=O)N[C@@H](Cc1ccc(O)cc1)C(=O)N[C@H](CCSC)C(N)=O` [Peptide V4, Oct-KWKW-Nle-Ym-NH2] (Octanoyl-KWKW[Nle]Y[dM]-NH2), for which the concentration giving a half-maximal response (EC50) at FPR2 was 64 nM. The “Antimicrobial activity (IC50, μg/ml) S. aureus” value with S. aureus is 5.1 µg/mL.

Regarding `CCCCCCCC(=O)N[C@@H](CCCNC(=N)N)C(=O)N[C@@H](Cc1c[nH]c2ccccc12)C(=O)N[C@@H](CCCNC(=N)N)C(=O)N[C@@H](Cc1c[nH]c2ccccc12)C(=O)N[C@@H](CCCC)C(=O)N[C@@H](Cc1ccc(O)cc1)C(=O)N[C@H](CCSC)C(N)=O` [Peptide V5, Oct-RWRW-Nle-Ym-NH2] (Octanoyl-RWRW[Nle]Y[dM]-NH2), the EC50 on FPR2 was 41.5 nM. Also, the “Antimicrobial activity (IC50, μg/ml) S. aureus” value with S. aureus is 2.0 µg/mL. The “Antimicrobial activity (IC50, μg/ml) P. aeruginosa” value in the experiment with P. aeruginosa was greater than 50 µg/mL.

For `CCCCCCCC(=O)N[C@@H](CCCCN)C(=O)N[C@@H](Cc1ccccc1)C(=O)N[C@@H](CCCCN)C(=O)N[C@@H](Cc1c[nH]c2ccccc12)C(=O)N[C@@H](CCCNC(=N)N)C(=O)N[C@@H](Cc1ccc(O)cc1)C(=O)N[C@@H](CCSC)C(=O)N[C@H](C(=O)N[C@H](CCSC)C(N)=O)C(C)C` [Peptide V6, Oct-KFKWRYMVm-NH2] (Octanoyl-KFKWRYMV[dM]-NH2), the concentration giving a half-maximal response (EC50) at FPR2 was found to be 4.2 nM. Also, the “Antimicrobial activity (IC50, μg/ml) S. aureus” value with S. aureus was greater than 50 µg/mL.

Take `CCCCCCCC(=O)N[C@@H](CCCNC(=N)N)C(=O)N[C@@H](Cc1c[nH]c2ccccc12)C(=O)N[C@@H](CCCNC(=N)N)C(=O)N[C@@H](Cc1c[nH]c2ccccc12)C(=O)N[C@@H](CCCNC(=N)N)C(=O)N[C@@H](Cc1ccc(O)cc1)C(=O)N[C@@H](CCSC)C(=O)N[C@H](C(=O)N[C@H](CCSC)C(N)=O)C(C)C` [Peptide V8, Oct-RWRWRYMVm-NH2] (Octanoyl-RWRWRYMV[dM]-NH2): the EC50 at FPR2 was 6.4 nM. The “Antimicrobial activity (IC50, μg/ml) S. aureus” value in the experiment with S. aureus stood at 13.0 µg/mL. The “Antimicrobial activity (IC50, μg/ml) P. aeruginosa” value with P. aeruginosa amounted to 24.4 µg/mL.

Take `CCCCCCCC(=O)N[C@@H](CCCNC(=N)N)C(=O)N[C@@H](Cc1c[nH]c2ccccc12)C(=O)N[C@@H](CCCNC(=N)N)C(=O)N[C@@H](Cc1c[nH]c2ccccc12)C(=O)N[C@@H](CCCNC(=N)N)C(=O)N[C@@H](Cc1c[nH]c2ccccc12)C(=O)N[C@@H](CCSC)C(=O)N[C@H](C(=O)N[C@H](CCSC)C(N)=O)C(C)C` [Peptide V9, Oct-RWRWRWMVm-NH2] (Octanoyl-RWRWRWMV[dM]-NH2): the EC50 on FPR2 turned out to be 4.7 nM. The “Antimicrobial activity (IC50, μg/ml) S. aureus” value with S. aureus was found to be 12.7 µg/mL.

Take `CCCCCCCC(=O)N[C@@H](CCCNC(=N)N)C(=O)N[C@@H](Cc1c[nH]c2ccccc12)C(=O)N[C@@H](CCCNC(=N)N)C(=O)N[C@@H](Cc1c[nH]c2ccccc12)C(=O)N[C@@H](Cc1ccc2ccccc2c1)C(=O)N[C@@H](Cc1c[nH]c2ccccc12)C(N)=O` [Peptide V16, Oct-RWRWZW-NH2] (Octanoyl-RWRW[2Nal]W-NH2): the “Antimicrobial activity (IC50, μg/ml) S. aureus” value in the experiment on S. aureus is 2.7 µg/mL. Besides, the “Antimicrobial activity (IC50, μg/ml) P. aeruginosa” value in the experiment with P. aeruginosa was 7.3 µg/mL.

In the case of `N=C(N)NCCC[C@H](NC(=O)[C@H](Cc1c[nH]c2ccccc12)NC(=O)[C@@H](N)CCCNC(=N)N)C(=O)N[C@@H](Cc1c[nH]c2ccccc12)C(=O)N[C@@H](Cc1ccc2ccccc2c1)C(=O)N[C@@H](Cc1c[nH]c2ccccc12)C(N)=O` [Peptide V16_0, RWRWZW-NH2] (H-RWRW[2Nal]W-NH2), the “Antimicrobial activity (IC50, μg/ml) S. aureus” value in the experiment with S. aureus came to 30.2 µg/mL. For the same molecule, in the experiment with P. aeruginosa, the “Antimicrobial activity (IC50, μg/ml) P. aeruginosa” value came to 4.3 µg/mL.

As to `CCCCCCCC(=O)N[C@@H](CCCNC(=N)N)C(=O)N[C@@H](Cc1c[nH]c2ccccc12)C(=O)N[C@@H](CCCNC(=N)N)C(=O)N[C@@H](Cc1c[nH]c2ccccc12)C(=O)N[C@@H](Cc1ccc2ccccc2c1)C(=O)N[C@@H](Cc1c[nH]c2ccccc12)C(=O)N[C@H](CCSC)C(N)=O` [Peptide V18, Oct-RWRWZWm-NH2] (Octanoyl-RWRW[2Nal]W[dM]-NH2), the concentration giving a half-maximal response (EC50) at FPR2 worked out at 62.8 nM. In addition, the “Antimicrobial activity (IC50, μg/ml) S. aureus” value in the experiment on S. aureus is 2.3 µg/mL. In addition, the “Antimicrobial activity (IC50, μg/ml) P. aeruginosa” value in the experiment on P. aeruginosa was determined as 16.2 µg/mL.

In the case of `CSCC[C@@H](NC(=O)[C@H](Cc1c[nH]c2ccccc12)NC(=O)[C@H](Cc1ccc2ccccc2c1)NC(=O)[C@H](Cc1c[nH]c2ccccc12)NC(=O)[C@H](CCCNC(=N)N)NC(=O)[C@H](Cc1c[nH]c2ccccc12)NC(=O)[C@@H](N)CCCNC(=N)N)C(N)=O` [Peptide V18_0, RWRWZWm-NH2] (H-RWRW[2Nal]W[dM]-NH2), at FPR2, the EC50 was 10 nM. Also, the “Antimicrobial activity (IC50, μg/ml) S. aureus” value with S. aureus worked out at 6.8 µg/mL. Further, the “Antimicrobial activity (IC50, μg/ml) P. aeruginosa” value in the experiment on P. aeruginosa was 21.1 µg/mL.

For `CSCC[C@@H](NC(=O)[C@H](Cc1c[nH]c2ccccc12)NC(=O)[C@H](CCCNC(=N)N)NC(=O)[C@H](Cc1c[nH]c2ccccc12)NC(=O)[C@H](Cc1c[nH]c2ccccc12)NC(=O)[C@H](CCCNC(=N)N)NC(=O)[C@H](Cc1ccc2ccccc2c1)NC(C)=O)C(N)=O` [Peptide V19_Ac, Ac-ZRWWRWm-NH2] (Ac-[2Nal]RWWRW[dM]-NH2), the EC50 on FPR2 came out at 69.4 nM. The “Antimicrobial activity (IC50, μg/ml) S. aureus” value in the experiment on S. aureus was 5.4 µg/mL. The “Antimicrobial activity (IC50, μg/ml) P. aeruginosa” value in the experiment with P. aeruginosa was greater than 50 µg/mL.

Regarding `CCCC[C@H](NC(=O)[C@H](Cc1c[nH]c2ccccc12)NC(=O)[C@H](Cc1c[nH]c2ccccc12)NC(=O)[C@H](CCCNC(=N)N)NC(=O)[C@H](Cc1ccc2ccccc2c1)NC(C)=O)C(=O)N[C@@H](Cc1c[nH]c2ccccc12)C(=O)N[C@H](CCSC)C(N)=O` [Peptide V20_Ac, Ac-ZRWW-Nle-Wm-NH2] (Ac-[2Nal]RWW[Nle]W[dM]-NH2), at FPR2, the EC50 worked out at 45.3 nM. The “Antimicrobial activity (IC50, μg/ml) S. aureus” value with S. aureus is greater than 50 µg/mL. Further, the “Antimicrobial activity (IC50, μg/ml) P. aeruginosa” value in the experiment on P. aeruginosa is greater than 50 µg/mL.

Take `CSCC[C@@H](NC(=O)[C@@H](NC(=O)[C@H](CCCNC(=N)N)NC(=O)[C@H](Cc1c[nH]c2ccccc12)NC(=O)[C@H](Cc1c[nH]c2ccccc12)NC(=O)[C@H](CCCNC(=N)N)NC(=O)[C@H](Cc1ccc2ccccc2c1)NC(C)=O)C(C)C)C(N)=O` [Peptide V21_Ac, Ac-ZRWWRVm-NH2] (Ac-[2Nal]RWWRV[dM]-NH2): the EC50 at FPR2 is 92.3 nM. Further, the “Antimicrobial activity (IC50, μg/ml) S. aureus” value with S. aureus was found to be 9.4 µg/mL. For the same molecule, in the experiment with P. aeruginosa, the “Antimicrobial activity (IC50, μg/ml) P. aeruginosa” value was greater than 50 µg/mL.

As for `CSCC[C@@H](NC(=O)[C@H](Cc1c[nH]c2ccccc12)NC(=O)[C@H](CCCNC(=N)N)NC(=O)[C@H](Cc1c[nH]c2ccccc12)NC(=O)[C@H](Cc1c[nH]c2ccccc12)NC(=O)[C@@H](NC(=O)[C@H](CCCNC(=N)N)NC(=O)[C@H](Cc1c[nH]c2ccccc12)NC(=O)[C@H](Cc1c[nH]c2ccccc12)NC(=O)[C@H](CCCNC(=N)N)NC(=O)[C@H](Cc1ccc2ccccc2c1)NC(C)=O)C(C)C)C(N)=O` [Peptide V22_Ac, Ac-ZRWWRVWWRWm-NH2] (Ac-[2Nal]RWWRVWWRW[dM]-NH2), at FPR2, the EC50 came out at 16.2 nM. The “Antimicrobial activity (IC50, μg/ml) S. aureus” value with S. aureus was 13.6 µg/mL. Besides, the “Antimicrobial activity (IC50, μg/ml) P. aeruginosa” value with P. aeruginosa is greater than 50 µg/mL.

The values above are taken from patent US11382946B2, “Multi-functional peptides and use thereof” (NOVACELL TECHNOLOGY INC., priority 2019, dated 2022).
